{"source": "patent US10433544B2", "about": "“Herbicide” (University of Kentucky Research Foundation, priority 2017, dated 2019)", "key": {"[1]": {"target": "T1, sorbitol dehydrogenase (SDH) (Ovis aries, UniProt P07846)", "T1 sequence (P07846 1-354)": "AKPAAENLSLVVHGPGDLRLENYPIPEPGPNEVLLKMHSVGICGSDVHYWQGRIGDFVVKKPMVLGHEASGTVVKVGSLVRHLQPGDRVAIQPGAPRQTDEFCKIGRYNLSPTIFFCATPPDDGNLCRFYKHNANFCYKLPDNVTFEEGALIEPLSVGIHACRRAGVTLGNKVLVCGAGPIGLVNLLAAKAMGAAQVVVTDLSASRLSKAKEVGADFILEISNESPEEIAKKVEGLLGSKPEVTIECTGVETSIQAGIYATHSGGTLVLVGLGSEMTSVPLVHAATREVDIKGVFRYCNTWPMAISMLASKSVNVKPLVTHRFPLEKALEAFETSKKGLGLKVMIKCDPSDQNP", "conditions": "cited from earlier work"}, "[2]": {"system": "growing plants of several weed species, including clover and pigweed", "assay": "Container studies, application to growing plants of several weed species (FIG. 3)", "format": "in vivo, white clover and pigweed", "conditions": "for effect of application on growing plants: 300 mM total concentration, twice a week for 2 weeks; for rank order of the effect / severity of effect across species: 300 mM; for rank order of the effect: injury and death of growing plants; for severity of effect across species: container studies", "protocol": "FIG. 3 includes images showing the effect of application of selected sugars and polyols twice a week for 2 weeks to white clover (A) and pigweed (B) plants.\n(§1) In container studies, fructose, inositol, sorbitol, ribitol, xylitol as well as a ribitol/xylitol solution were applied at 300 mM total concentration to plants including white clover and pigweed. […] Other common sugars like glucose and fructose had no effect. […] Due to the desire for a broad spectrum herbicide that affected both seed germination and plant growth the most, and to keep the most expensive component, ribitol, to a low effective level, we concluded that the 150 mM ribitol/150 mM xylitol formulation (300 mM combined concentration) was the optimum for field tests."}, "[3]": {"system": "seed of alfalfa, dandelion and mixed grasses", "assay": "Seed germination in 300 mM solutions of fructose and polyols (FIG. 1)", "format": "in vivo", "conditions": "ribitol/xylitol 150 mM + 150 mM, 8 days of incubation", "protocol": "FIG. 1 includes a chart showing the effect of 300 mM solutions of fructose and polyols, and a 150 mM ribitol plus 150 mM xylitol (R+X) formulation on seed germination. Means±standard deviation are across alfalfa, dandelion and mixed grasses after 8 days of incubation.\nSeed of several species were incubated with 300 mM solutions of fructose, inositol, sorbitol, ribitol, xylitol as well as a ribitol/xylitol solution."}, "seed of turfgrass": {"system": "seed of turfgrass", "assay": "Turfgrass seed germination in xylitol, ribitol and ribitol/xylitol solutions (FIG. 2A)", "format": "in vivo", "conditions": "total concentrations 100 to 300 mM, 10 days", "protocol": "(§2) FIG. 2 includes images of grass (A) and Dutch white clover (B) seed germination after 10 days in solutions of xylitol alone, ribitol alone, and xylitol+ribitol, at total concentrations of 100 to 300 mM (grass) or 100 to 400 mM (clover).\n(§3) Seed of turfgrass (FIG. 2A) and Dutch white clover (FIG. 2B) were incubated with solutions of xylitol, ribitol, and a ribitol/xylitol solution at 100 to 300 mM (A) or 100 to 400 mM (B). […] The clover seed was in developmental arrest at 400 mM ribitol and 300 mM ribitol/xylitol."}, "rice seeds": {"system": "rice seeds", "assay": "Seed germination with ribitol and SDH specific inhibitor (FIG. 8), rice", "format": "in vivo", "conditions": "150 mM ribitol, 0.5 mM CP-470711, six days", "protocol": "(§4) FIG. 8 includes images showing the effect of blocking SDH activity with (A) water (B) 150 mM ribitol (C) the SDH-specific inhibitor CP-470711(Pfizer) and (D) ribitol+CP-470711 on sensitivity of seed germination of Wild Type Arabidopsis, tomato, and rice for 6 days.\n(§5) The effect of blocking SDH activity with an SDH specific inhibitor was explored with application to wild type Arabidopsis, tomato and rice seeds for six days. […] Each compound alone at the same concentration had no effect."}, "dandelion plants": {"system": "dandelion plants", "assay": "Container studies, spraying of dandelion plants (FIG. 4)", "format": "in vivo", "conditions": "300 mm, ribitol+xylitol each at 150 mM, sprayed twice weekly for 2 weeks", "protocol": "FIG. 4 includes images showing the effect of application of […] fructose, glucose, sorbitol, ribitol, xylitol, or ribitol+xylitol (each at 150 mM) twice weekly for 2 weeks on dandelion plants.\nas §1"}, "[4]": {"system": "seed germination of numerous plant species", "assay": "Ribitol toxicity effect on seed germination, numerous plant species", "format": "in vivo", "conditions": "ribitol with no adjuvant", "excerpt": "An increasing number of species have been identified as bearing the SDH gene and activity (Jia et al., […]), so most weed species could likely metabolize it."}, "[5]": {"system": "wild type Arabidopsis seeds", "assay": "Seed germination with ribitol and SDH specific inhibitor (FIG. 8), Arabidopsis", "format": "in vivo", "conditions": "150 mM ribitol, 0.5 mM CP-470711, six days", "protocol": "as §4, §5"}, "seed germination": {"system": "seed germination", "conditions": "when it cannot be metabolized properly; cited from earlier work"}, "[6]": {"system": "sdh-knockout mutant plants and Wild Type plants", "conditions": "50 mM ribitol, cited from earlier work"}, "[7]": {"system": "seed of Dutch white clover", "assay": "Dutch white clover seed germination in xylitol, ribitol and ribitol/xylitol solutions (FIG. 2B)", "format": "in vivo", "conditions": "total concentrations 100 to 400 mM, 10 days", "protocol": "as §2, §3"}, "tomato seeds": {"system": "tomato seeds", "assay": "Seed germination with ribitol and SDH specific inhibitor (FIG. 8), tomato", "format": "in vivo", "conditions": "150 mM ribitol, 0.5 mM CP-470711, six days", "protocol": "as §4, §5"}}, "data": [{"smiles": "SCc1ccccc1", "note": "[1-thio-1-phenylmethane]", "values": [{"measurement": "SDH inhibition", "setting": "[1]", "result": "effective SDH inhibitors"}]}, {"smiles": "SCCc1ccccc1", "note": "[1-thio-2-phenylethane]", "values": [{"measurement": "SDH inhibition", "setting": "[1]", "result": "effective SDH inhibitors"}]}, {"smiles": "O=C(CO)[C@@H](O)[C@H](O)[C@H](O)CO", "note": "[fructose, reference compound]", "values": [{"measurement": "effect of application on growing plants", "setting": "[2]", "result": "no effect"}, {"measurement": "inhibition of seed germination", "setting": "[3]", "result": "only significantly inhibited by the ribitol/xylitol solution"}]}, {"smiles": "O[C@H]1[C@H](O)[C@@H](O)[C@H](O)[C@@H](O)[C@H]1O", "note": "[inositol, reference compound]", "values": [{"measurement": "inhibition of seed germination", "setting": "[3]", "result": "only significantly inhibited by the ribitol/xylitol solution"}]}, {"smiles": "OC[C@@H](O)[C@@H](O)[C@@H](O)CO", "note": "[ribitol]", "values": [{"measurement": "concentration at which grass seed was significantly inhibited", "setting": "seed of turfgrass", "result": 300, "unit": "mM"}, {"measurement": "effect of application on growing plants", "setting": "[2]", "result": "caused injury and death"}, {"measurement": "rank order of the effect", "setting": "[2]", "result": "sorbitol<xylitol≤ribitol"}, {"measurement": "inhibition of seed germination", "setting": "[3]", "result": "only significantly inhibited by the ribitol/xylitol solution"}, {"measurement": "effect on seed germination", "setting": "rice seeds", "result": "no effect"}, {"measurement": "effect on dandelion plants", "setting": "dandelion plants", "result": "death of plants"}, {"measurement": "ribitol concentration at which toxicity effect on seed germination occurred", "setting": "[4]", "result": "≥ 300", "unit": "mM"}, {"measurement": "effect on seed germination", "setting": "[5]", "result": "no effect"}, {"measurement": "effect on seed germination", "setting": "seed germination", "result": "inhibited seed germination"}, {"measurement": "effect of application on Wild Type plants", "setting": "[6]; Wild Type plants", "result": "no effect"}, {"measurement": "effect of application on sdh-knockout mutant plants", "setting": "[6]; well-watered sdh-knockout mutant plants", "result": "quick injury and eventual death"}, {"measurement": "concentration at which clover seed was in developmental arrest", "setting": "[7]", "result": 400, "unit": "mM"}, {"measurement": "effect on seed germination", "setting": "tomato seeds", "result": "no effect"}]}, {"smiles": "OC[C@@H](O)[C@@H](O)[C@H](O)[C@@H](O)CO", "note": "[sorbitol]", "values": [{"measurement": "effect of application on growing plants", "setting": "[2]", "result": "caused injury and death"}, {"measurement": "severity of effect across species", "setting": "[2]", "result": "caused damage"}, {"measurement": "rank order of the effect", "setting": "[2]", "result": "sorbitol<xylitol≤ribitol"}, {"measurement": "inhibition of seed germination", "setting": "[3]", "result": "only significantly inhibited by the ribitol/xylitol solution"}]}, {"smiles": "OC[C@@H](O)[C@H](O)[C@@H](O)CO", "note": "[xylitol]", "values": [{"measurement": "effect of application on growing plants", "setting": "[2]", "result": "caused injury and death"}, {"measurement": "severity of effect across species", "setting": "[2]", "result": "caused damage"}, {"measurement": "rank order of the effect", "setting": "[2]", "result": "sorbitol<xylitol≤ribitol"}, {"measurement": "inhibition of seed germination", "setting": "[3]", "result": "only significantly inhibited by the ribitol/xylitol solution"}, {"measurement": "effect on dandelion plants", "setting": "dandelion plants", "result": "death of plants"}]}]}
